In patent publication US20250320213A1, “Nitrogen-Containing Heterocyclic Compounds” (Pfizer Inc., priority 2024, published 2025):
Where two headings read alike, the source gives them in different places.

Experiments:
[1] = biological target: T1, STAT6 (Homo sapiens, UniProt P42226); experiment: STAT6 Reporter Luciferase Assay (IL-13 stimulated HaCaT keratinocyte NanoLuc reporter cells); assay type: cell-based; details: read-out: Reporter EC50
T1 construct: stably transfected HaCaT keratinocyte cell line, which expresses NanoLuc luciferase reporter gene under the transcriptional control of the STAT6 responsive promoter; endogenous in cells; host or cells: HaCaT keratinocyte reporter cell line (stably transfected with a NanoLuc reporter)
T1 sequence (P42226 1-847): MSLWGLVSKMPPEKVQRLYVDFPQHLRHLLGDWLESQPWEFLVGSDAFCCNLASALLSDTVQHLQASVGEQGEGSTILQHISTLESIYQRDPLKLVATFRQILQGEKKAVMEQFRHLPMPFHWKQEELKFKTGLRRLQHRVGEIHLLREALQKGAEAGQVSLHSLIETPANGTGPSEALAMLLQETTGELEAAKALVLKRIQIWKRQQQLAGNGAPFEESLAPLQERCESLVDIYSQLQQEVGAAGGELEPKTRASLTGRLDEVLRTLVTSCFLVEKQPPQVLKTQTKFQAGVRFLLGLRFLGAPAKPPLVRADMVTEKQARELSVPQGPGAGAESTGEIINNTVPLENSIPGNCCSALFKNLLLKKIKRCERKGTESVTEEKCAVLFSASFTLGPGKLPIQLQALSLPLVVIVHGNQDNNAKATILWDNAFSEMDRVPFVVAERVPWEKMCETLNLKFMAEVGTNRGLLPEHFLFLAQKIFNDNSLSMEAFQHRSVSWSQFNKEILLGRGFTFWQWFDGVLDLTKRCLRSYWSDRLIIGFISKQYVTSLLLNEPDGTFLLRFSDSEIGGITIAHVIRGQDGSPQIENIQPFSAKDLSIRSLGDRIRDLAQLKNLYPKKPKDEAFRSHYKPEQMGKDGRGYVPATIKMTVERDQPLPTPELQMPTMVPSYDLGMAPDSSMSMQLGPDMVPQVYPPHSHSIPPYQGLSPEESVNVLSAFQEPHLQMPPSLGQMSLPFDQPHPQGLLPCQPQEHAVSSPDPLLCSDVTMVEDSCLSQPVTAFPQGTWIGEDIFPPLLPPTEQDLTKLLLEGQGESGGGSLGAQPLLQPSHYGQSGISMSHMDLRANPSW
How it was run: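 Cells were plated overnight, washed, exposed to compound for two hours, stimulated with IL-13 (0.12 nM final) for four hours at 37 °C, and then lysed with Nano-Glo substrate for 15 min before luminescence reading.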

[2] = test system: CCL17 secretion in peripheral human whole blood; experiment: Human Whole Blood (HWB) CCL17 TR-FRET Assay (IL-13 stimulated CCL17 secretion); assay type: cell-based
How it was run: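 TR-FRET sandwich immunoassay (665/615 nm ratio) read CCL17 in serum from heparinized whole blood after 16 h RT detection. Blood was exposed to compound for 2 h at 37 °C, then to 10 ng/mL IL-13 (final) for 48 h. IC50 from 11-point, 3-fold titrations in duplicate.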

[3] = IL-13 stimulated HaCaT STAT6 NanoLuc reporter cells
[4] = Homo sapiens, 48 h, human whole blood, IL-13 stimulated
[5] = human whole blood, IL-13 stimulated, 48 hours
[6] = Homo sapiens, 48 h, human whole blood, 10 ng/mL IL13, 48 hours
[7] = STAT6 NanoLuc luciferase reporter, IL-13 stimulated HaCaT keratinocyte cells
[8] = Homo sapiens, 48 h, inhibition of CCL17 secretion in human whole blood, 10 ng/mL IL13, 48 hours
[9] = inhibition of CCL17 secretion in human whole blood, 10 ng/mL IL13, 48 hours

SMILES | EC50 [1, 3] [nM] | EC50 [1, 7] [nM] | other results
Cc1nn(C)c(=O)n1-c1ccc(CNC(=O)c2nn(C(C)C)c3c2CN(c2ccc(C(=O)N(C)C)cn2)C[C@@H]3C)cc1 [Example 471, (S)-N-(4-(1,3-dimethyl-5-oxo-1,5-dihydro-4H-1,2,4-triazol-4-yl)benzyl)-5-(5-(dimethylcarbamoyl)pyridin-2-yl)-1-isopropyl-7-methyl-4,5,6,7-tetrahydro-1H-pyrazolo[4,3-c]pyridine-3-carboxamide] | 432 | – | IC50 [2, 4]: 3290 nM
CC(C)n1nc(C(=O)NCc2ccc(NC(=O)N(C)C)cc2)c2c1CC(C(F)(F)F)N(c1ccc(C(=O)N(C)C)cn1)C2 (single isomer, unassigned) [Example 276, rel-(R or S)-5-(5-(dimethylcarbamoyl)pyridin-2-yl)-N-(4-(3,3-dimethylureido)benzyl)-1-isopropyl-6-(trifluoromethyl)-4,5,6,7-tetrahydro-1H-pyrazolo[4,3-c]pyridine-3-carboxamide] | 2 | – | IC50 [2, 5]: 28 nM
CC(C)n1nc(C(=O)NCc2ccc(NC(=O)N(C)CC(F)F)cc2)c2c1[C@@H](C)CN(c1ccc(C(=O)N(C)C)cn1)C2 [Example 598, (S)-N-(4-(3-(2,2-difluoroethyl)-3-methylureido)benzyl)-5-(5-(dimethylcarbamoyl)pyridin-2-yl)-1-isopropyl-7-methyl-4,5,6,7-tetrahydro-1H-pyrazolo[4,3-c]pyridine-3-carboxamide] | 1 | – | IC50 [2, 6]: 13 nM
CC(C)n1nc(C(=O)NCc2ccc(NC(=O)N(C)C)cc2)c2c1CCN(c1ccc(N3CCOCCC3=O)cn1)C2 [Example 100, N-(4-(3,3-dimethylureido)benzyl)-1-isopropyl-5-(5-(5-oxo-1,4-oxazepan-4-yl)pyridin-2-yl)-4,5,6,7-tetrahydro-1H-pyrazolo[4,3-c]pyridine-3-carboxamide] | – | 174 | IC50 [2, 8]: 1800 nM
C[C@@H]1Cc2c(c(C(=O)NCc3ccc(NC(=O)N(C)C)cc3)nn2C)CN1c1ccc(C(=O)N(C)C)cn1 [Example 50, (R)-5-(5-(dimethylcarbamoyl)pyridin-2-yl)-N-(4-(3,3-dimethylureido)benzyl)-1,6-dimethyl-4,5,6,7-tetrahydro-1H-pyrazolo[4,3-c]pyridine-3-carboxamide] | – | 35 | IC50 [2, 8]: 151 nM
CCC(C)n1nc(C(=O)NCc2ccc(NC(=O)N(C)C)cc2)c2c1CCN(c1ccc(C(=O)N(C)C)cn1)C2 (single isomer, unassigned) [Example 235, rel-(R or S)-1-(sec-butyl)-5-(5-(dimethylcarbamoyl)pyridin-2-yl)-N-(4-(3,3-dimethylureido)benzyl)-4,5,6,7-tetrahydro-1H-pyrazolo[4,3-c]pyridine-3-carboxamide] | 15 | – | IC50 [2, 5]: 85 nM
CC1Cc2c(c(C(=O)NCc3ccc(NC(=O)N(C)C)cc3)nn2C)CN1c1ccc(C(=O)N(C)C)cn1 (racemic) [Example 49, rac-(R)-5-(5-(dimethylcarbamoyl)pyridin-2-yl)-N-(4-(3,3-dimethylureido)benzyl)-1,6-dimethyl-4,5,6,7-tetrahydro-1H-pyrazolo[4,3-c]pyridine-3-carboxamide] | – | 9 | IC50 [2, 8]: 39 nM
CC(C)n1nc(C(=O)NCc2ccc(NC(=O)N3CC(F)C3)cc2)c2c1[C@@H](C)CN(c1ccc(C(=O)N(C)C)cn1)C2 [Example 584, (S)-5-(5-(dimethylcarbamoyl)pyridin-2-yl)-N-(4-(3-fluoroazetidine-1-carboxamido)benzyl)-1-isopropyl-7-methyl-4,5,6,7-tetrahydro-1H-pyrazolo[4,3-c]pyridine-3-carboxamide] | 1 | – | IC50 [2, 6]: 12 nM
CNC1(C)CCN(C(=O)Nc2ccc(CNC(=O)c3nn(C(C)C)c4c3CN(c3ccc(C(=O)N(C)C)cc3)C[C@@H]4C)cc2)C1 (single isomer, unassigned) [Example 713, (S)-5-(4-(dimethylcarbamoyl)phenyl)-1-isopropyl-7-methyl-N-(4-((R*)-3-methyl-3-(methylamino)pyrrolidine-1-carboxamido)benzyl)-4,5,6,7-tetrahydro-1H-pyrazolo[4,3-c]pyridine-3-carboxamide] | 3 | – | IC50 ([2]; Homo sapiens, 48 h, human whole blood, IL-13 10 ng/mL): 22 nM
Cc1nc(C(=O)NCc2ccc(NC(=O)N(C)C)cc2)c2n1C(C)CN(c1ccc(C(=O)N(C)C)cn1)C2 (single isomer, unassigned) [Example 53, rel-(R or S)-7-(5-(dimethylcarbamoyl)pyridin-2-yl)-N-(4-(3,3-dimethylureido)benzyl)-3,5-dimethyl-5,6,7,8-tetrahydroimidazo[1,5-a]pyrazine-1-carboxamide] | – | 8 | IC50 [2, 9]: 19 nM
CC(C)n1nc(C(=O)NCc2ccc(NC(=O)N(C)C)cc2)c2c1CCN(c1ncc(C(=O)N(C)C)cn1)[C@H]2C (single isomer, unassigned) [Example 509] | 3320 | – | IC50 [2, 4]: 8170 nM
CC(C)n1nc(C(=O)NCc2ccc(NC(=O)N(C)C)cc2)c2c1CCN(c1ncc(C(=O)N(C)C)cn1)[C@@H]2C (single isomer, unassigned) [Example 508] | 7 | – | IC50 [2, 4]: 20 nM
CC(C)n1nc(C(=O)NCc2ccc(NC(=O)NCC3CC3)cc2)c2c1CCN(c1ccc(C(=O)N(C)C)cn1)C2 [Example 154, N-(4-(3-(cyclopropylmethyl)ureido)benzyl)-5-(5-(dimethylcarbamoyl)pyridin-2-yl)-1-isopropyl-4,5,6,7-tetrahydro-1H-pyrazolo[4,3-c]pyridine-3-carboxamide] | – | 8 | IC50 [2, 8]: 449 nM
CNC(=O)Nc1ccc(CNC(=O)c2n[nH]c3c2CN(c2ccc(C(=O)N(C)C)cn2)CC3)cc1 [Example 526, 5-(5-(dimethylcarbamoyl)pyridin-2-yl)-N-(4-(3-methylureido)benzyl)-4,5,6,7-tetrahydro-1H-pyrazolo[4,3-c]pyridine-3-carboxamide] | 4010 | – | IC50 [2, 4]: 2040 nM
COCC1(N)CCN(C(=O)Nc2ccc(CNC(=O)c3nn(C(C)C)c4c3CN(c3ccc(C(=O)N(C)C)cc3)C[C@@H]4C)cc2)CC1 [Example 638, (S)-N-(4-(4-amino-4-(methoxymethyl)piperidine-1-carboxamido)benzyl)-5-(4-(dimethylcarbamoyl)phenyl)-1-isopropyl-7-methyl-4,5,6,7-tetrahydro-1H-pyrazolo[4,3-c]pyridine-3-carboxamide] | 1 | – | IC50 [2, 6]: 4 nM
CCn1nc(C(=O)NCc2ccc(NC(=O)N(C)C)cc2)c2c1[C@@H](C)[C@H](C)N(c1ccc(C(=O)N(C)C)cn1)C2 (single isomer, unassigned) [Example 352] | 0.3 | – | IC50 [2, 4]: 3 nM
CCC1CN(c2ccc(C(=O)N(C)C)cn2)Cc2c(C(=O)NCc3ccc(NC(=O)N(C)C)cc3)nn(C)c21 (single isomer, unassigned) [Example 78, rel-(R or S)-5-(5-(Dimethylcarbamoyl)pyridin-2-yl)-N-(4-(3,3-dimethylureido)benzyl)-7-ethyl-1-methyl-4,5,6,7-tetrahydro-1H-pyrazolo[4,3-c]pyridine-3-carboxamide] | – | 3 | IC50 [2, 9]: 14 nM
CC(C)n1nc(C(=O)NCc2ccc(-c3ncc[nH]3)cc2)c2c1CCN(c1ccc(C(=O)N(C)C)cn1)C2 [Example 11, N-(4-(1H-imidazol-2-yl)benzyl)-5-(5-(dimethylcarbamoyl)pyridin-2-yl)-1-isopropyl-4,5,6,7-tetrahydro-1H-pyrazolo[4,3-c]pyridine-3-carboxamide] | – | 16 | IC50 [2, 8]: 205 nM
CC(C)n1nc(C(=O)NCc2ccc(NC(=O)N(C)C)cc2)c2c1CCN(c1ccc(C3CCCO3)cn1)C2 (single isomer, unassigned) [Example 362, rel-(R or S)-N-(4-(3,3-dimethylureido)benzyl)-1-isopropyl-5-(5-(tetrahydrofuran-2-yl)pyridin-2-yl)-4,5,6,7-tetrahydro-1H-pyrazolo[4,3-c]pyridine-3-carboxamide] | 838 | – | IC50 [2, 5]: > 3490 nM
